Laboratory results as given in paper PMC8842277, “Highly Antiproliferative Latonduine and Indolo[2,3-c]quinoline Derivatives: Complex Formation with Copper(II) Markedly Changes the Kinase Inhibitory Profile” (Journal of Medicinal Chemistry, 2022).

Key:
[1] = tested on: HCT-116 colon carcinoma cells; experiment: MTT assay, 96 h; type: cell-based, human
Source text: The oncosuppressor protein p53 controls the cellular response to DNA strand breaks induced by cytotoxic drugs or by radiation.[58] The p53 protein may enhance cell chemosensitivity by promoting apoptosis via different mechanisms including activation of proapoptotic genes such as bax and repression of antiapoptotic genes such as bcl-2 or in contrast increase chemoresistance by promoting p21-mediated and p21-independent growth arrest and DNA repair and by activation of antiapoptotic genes such as bcl-x. There is strong evidence that the modulation of drug sensitivity by p53 may be both drug- and cell type-specific.[59] […] Accordingly, essential differences in chemosensitivity were observed between cells with wild-type p53 gene and cells with knocked out p53 gene by homologous recombination.[60]
Human colonic adenocarcinoma cell lines Colo 205 doxorubicin-sensitive (ATCC-CCL-222) and Colo 320/MDR-LRP multidrug resistant over-expressing ABCB1 (MDR1)-LRP (ATCC-CCL-220.1) were purchased from LGC Promochem, Teddington, UK. The cells were cultured in an RPMI 1640 medium supplemented with 10% heat-inactivated fetal bovine serum, 2 mM L-glutamine, 1 mM Na-pyruvate, and 10 mM HEPES. The semi-adherent human colon cancer cells were detached with Trypsin-Versene (EDTA) solution for 5 min at 37 °C. An MRC-5 human embryonal lung fibroblast cell line (ATCC CCL-171) was purchased from LGC Promochem, Teddington, UK. The cells were cultured in Eagle’s minimal essential medium (EMEM, containing 4.5 g L^–1 glucose) supplemented with a non-essential amino acid mixture, a selection of vitamins, and 10% heat-inactivated fetal bovine serum. The HCT-116 colon carcinoma cells and isogenic p53-knock-out subline were a gift of Prof. Bert Vogelstein from The Johns Hopkins Oncology Center. Cells were cultured in McCoy’s 5A medium supplemented with 10% heat-inactivated fetal bovine serum and 4 mM L-glutamine. All cell lines were incubated at 37 °C, in a 5% CO2, 95% air atmosphere.
MRC-5 non-cancerous human embryonic lung fibroblast and human colonic adeno-carcinoma cell lines (doxorubicin-sensitive Colo 205 and multidrug resistant Colo 320 colonic adenocarcinoma cells) were used to determine the effect of compounds on cell growth. The effects of increasing concentrations of compounds on cell growth were tested in 96-well flat-bottomed microtiter plates. The compounds were dissolved in DMSO and stock solutions of 10 mM were prepared. These were further diluted in the appropriate cell culture medium by twofold serial dilution starting from 100 or 10 μM for the compounds. The adherent human embryonal lung fibroblast cells were cultured in 96-well flat-bottomed microtiter plates using EMEM supplemented with 10% heat-inactivated fetal bovine serum. The density of the cells was adjusted to 1 × 10^4 cells in 100 μL per well, the cells were seeded for 24 h at 37 °C, 5% CO2, then the medium was removed from the plates containing the cells, and the dilutions of compounds previously made in a separate plate were added to the cells in 200 μL. In the case of the colonic adenocarcinoma cells, the twofold serial dilutions of compounds were prepared in 100 μL of RPMI 1640, horizontally. The semi-adherent colonic adenocarcinoma cells were treated with Trypsin-Versene (EDTA) solution. They were adjusted to a density of 1 × 10^4 cells in 100 μL of RPMI 1640 medium and were added to each well, with the exception of the medium control wells. […]

[2] = tested on: calf thymus DNA (ct-DNA); experiment: Ethidium bromide displacement and fluorescence lifetime; type: binding; conditions: 10 μM ct-DNA, 5 μM EtBr, 10 mM HEPES, pH 7.40
Description: The interaction of 4 and 8 and HL^4 and HL^8 with ct-DNA was investigated by spectrofluorometry in ethidium bromide (EtBr) displacement studies. EtBr is a fluorescent probe, and its fluorescence intensity increases upon intercalation into the DNA helix. […] Decrease in the fluorescence may indicate (i) the displacement of EtBr or (ii) (partial) quenching of the fluorescence of the bound probe. In order to separate these processes, fluorescence lifetime measurements were carried out. […] In addition, they provided evidence that the two copper(II) complexes bind to ct-DNA. However, complex 8 replaced EtBr more effectively than 4. […]
Fluorescence measurements were carried out on a Fluoromax (Horiba Jobin Yvon) fluorometer. […] The excitation wavelengths were 510 or 455 nm, and the fluorescence emission was measured in the range 530–750 nm. Corrections for self-absorbance and inner filter effect were done according to our former work.[106] Fluorescence lifetime was measured on the same fluorometer equipped with a DeltaHub time-correlated single photon counting (TCSPC) controller using a NanoLED light source N-455 (Horiba Jobin Yvon). […] The fluorescence intensity decay over time is described by a sum of exponentials, [drawing 3] […] Fractional intensities were calculated as described in our former work.[105] […]

Row | Structure (SMILES) | IC50 [1] [nM] | Effect on fluorescence of the EtBr–ct-DNA system [2]
1 | CC(=NNC1=NCc2ccccc2-c2c1[nH]c1ccc(Br)cc21)c1ccc(CN2CCOCC2)cn1.[Cl][Cu][Cl] [compound 4, CuCl2(HL^4)·0.5H2O] | 130 | decreased the emission intensity
2 | CC(=NNc1nc2ccccc2c2c1[nH]c1ccc(Br)cc12)c1ccc(CN2CCOCC2)cn1.[Cl][Cu][Cl] [compound 8, CuCl2(HL^8)·H2O] | 50 | decreased the emission intensity
